{"source": "patent US20220091128A1", "about": "“SYSTEM AND METHOD FOR LIGAND THERMAL ANALYSIS” (Portland State University, priority 2019, published 2022)", "format_in_all_cases": "binding", "key": {"[1]": {"test_system": "human plasma", "assay": "DSC thermograms of plasma with ligand", "settings": "plasma, measured versus calculated composite curves (FIG. 22)"}, "[2]": {"target": "biotinylated HSA (HSAB) (Homo sapiens, UniProt P02768)", "sequence (P02768 25-609)": "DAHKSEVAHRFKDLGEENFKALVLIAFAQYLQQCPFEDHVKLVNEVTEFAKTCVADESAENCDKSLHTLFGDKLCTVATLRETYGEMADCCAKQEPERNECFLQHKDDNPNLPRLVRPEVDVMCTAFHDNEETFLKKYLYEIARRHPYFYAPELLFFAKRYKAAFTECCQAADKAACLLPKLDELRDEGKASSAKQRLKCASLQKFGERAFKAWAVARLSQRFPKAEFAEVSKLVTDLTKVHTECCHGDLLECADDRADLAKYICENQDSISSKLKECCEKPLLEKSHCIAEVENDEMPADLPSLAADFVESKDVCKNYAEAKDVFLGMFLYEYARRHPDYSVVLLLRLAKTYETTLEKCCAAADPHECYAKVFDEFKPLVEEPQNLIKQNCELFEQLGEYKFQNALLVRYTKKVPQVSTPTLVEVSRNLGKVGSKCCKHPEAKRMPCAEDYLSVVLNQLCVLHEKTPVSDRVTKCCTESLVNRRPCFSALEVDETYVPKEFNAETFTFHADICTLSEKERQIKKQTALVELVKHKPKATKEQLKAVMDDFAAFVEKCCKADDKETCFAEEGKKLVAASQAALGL", "assay": "DSC thermograms of biotinylated HSA (HSAB) with ligands", "settings": "HSAB, measured versus calculated composite curves (FIG. 23)"}, "[3]": {"target": "HSA (Homo sapiens, UniProt P02768)", "sequence (P02768 25-609)": "as above", "assay": "Capture of DNA from plasma with biotinylated HSA capture reagent, gel electrophoresis", "parameters": "purchased Sigma Aldrich (HSA); biotinylated in house (Thermo Fisher Scientific 21217); Pierce streptavidin magnetic beads (Thermo Scientific 88816)", "settings": "salt washes", "procedure": "Gel electrophoresis: DNA samples collected at different steps of the capture procedure were analyzed by electrophoresis on polyacrylamide gels. All electrophoresis experiments were performed using Lonza PAGEr™ Gold Precast Gels: Gradient, 10×10 cm, 8-16%, purchased from Thermo-Fisher (BMA59519). Each supernatant fraction collected at different steps of the capture procedure were suspended in TAE running buffer and analyzed. In a typical experiment, 25 μL total volume of solution was loaded per lane (well capacity). Gels were run in TAE buffer (40 mM Tris, 20 mM Acetic Acid, 0.4 mM EDTA) at a constant current of 20 mA for approximately three hours. Gels for analysis of DNA were stained with Stains-all solution, destained in water, removed, visualized and imaged on a flat-bed scanner. Gels for analysis of hot labeled cy5′-25MER DNA were visualized using a Typhoon™ Trio+phosphorimager (GE Healthcare).\nCapture strategy: In some examples, biotinylated HSA acts as an affinity reagent for ligands in plasma that bind HSA. In the capture step, streptavidin coated magnetic beads are attached to biotinylated HSA then inserted into plasma. With application of a magnetic field, ligand-bound biotinylated HSA is retrieved. Captured HSA contains bound plasma components (ligands).\nLigand recovery: In the capture process, HSA-bound components are washed off the capture reagent. […]"}}, "data": [{"substance": "ssDNA: 25-base single strand DNA 25R, 5′-CGACATGACCTTGTCGCTAACATCC-3′ (DNA CGACATGACCTTGTCGCTAACATCC; DNA, backbone and methylation of C not given here)", "values": [{"measurement": "interaction judged by effect on the thermogram", "setting": "[1]", "result": "interact very weakly"}, {"measurement": "interaction judged by effect on the thermogram", "setting": "[2]", "result": "interact very weakly"}, {"measurement": "binding to HSA by gel analysis", "setting": "[3]", "result": "detectable, but weak"}]}]}
